Each compound was assayed against T1, recombinant human Lp-PLA2 (Homo sapiens, UniProt Q13093) (assay: (1a) PED6 assay, recombinant human Lp-PLA2 (rhLp-PLA2)). Settings: Examples 1-167 and 413-430 were tested here, one experiment or average of multiple experiments, read-out: rhLp-PLA2 (pIC50) (converted).
T1 sequence (Q13093 22-441): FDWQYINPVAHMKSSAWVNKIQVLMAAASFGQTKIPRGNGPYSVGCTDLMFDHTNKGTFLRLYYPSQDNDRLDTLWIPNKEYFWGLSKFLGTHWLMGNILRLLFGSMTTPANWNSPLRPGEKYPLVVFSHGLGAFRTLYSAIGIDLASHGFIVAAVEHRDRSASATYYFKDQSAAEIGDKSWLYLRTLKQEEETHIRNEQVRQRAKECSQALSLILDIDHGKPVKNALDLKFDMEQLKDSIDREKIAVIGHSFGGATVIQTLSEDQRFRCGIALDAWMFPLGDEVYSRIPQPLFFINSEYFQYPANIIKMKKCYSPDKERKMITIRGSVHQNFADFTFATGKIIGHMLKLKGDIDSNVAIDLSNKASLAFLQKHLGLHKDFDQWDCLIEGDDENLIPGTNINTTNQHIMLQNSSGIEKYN
Format: biochemical
From the text: (1) Recombinant Human Lp-PLA2 Assays (rhLp-PLA2)
N-((6-(2,4-Dinitrophenyl)amino)-hexanoyl)-2-(4,4-difluoro-5,7-dimethyl-4-bora-3a,4a-diaza-s-indacene-3-pentanoyl)-1-hexadecanoyl-sn-glycero-3-phosphoethanolamine, triethylammonium salt (PED6) is a commercially available fluorescently-labeled phospholipid, which is commercially available from Invitrogene and Molecular Probes. There is a quenching […] and a Bodipy fluorescein (FL) group in the sn2 position. Upon cleavage with Lp-PLA2, the Bodipy FL group is liberated and then may result in an increase in fluorescence. Inhibitors of Lp-PLA2 therefore prevent this cleavage and no fluorescent increase is observed.
The PED6 assay was run as an unquenched 10 μL assay. The source plate containing the compounds to be tested was prepared by making 1:3 (by volume) serial dilution of the compounds within DMSO on 384-well microplate. Then, 0.01 μL of the compounds on compound source plate were transferred into 384 well Greiner 784076 (black) plates using ECHO liquid dispenser. 5 μL of recombinant human Lp-PLA2 enzyme (4 nM) rhLp-PLA2 in assay buffer of 50 mM HEPES, pH 7.4, 150 mM NaCl, 1 mM CHAPS) was added to each well of the plate. Plates were centrifuged for 10 sec at 500 rpm. After 30 minutes preincubation, 5 μL of substrate (4 μM PED6 [from 5 mM DMSO stock] in assay buffer of 50 mM HEPES, pH 7.4, 150 mM NaCl, 1 mM CHAPS) was added to 384 well Greiner 784076 (black) plates. Plates were centrifuged for 10 sec at 500 rpm. The plate was covered to protect it from light and incubated for 20 min at room temperature. The plates were read for fluorescence intensity at ex: 480/em: 540 using ViewLux microplate imager for Envision spectrofluroimeters. pIC50 data, curve and QC analysis was conducted by using XL fit module in Excel.

Row | IC50 [µM] | Structure (SMILES)
1 | ≤ 10 | O=c1nc(OCc2ccc(F)c(C(F)(F)F)c2)cc2n1CC1CCCCN21 (centres unmarked) [Example E13, 3-((4-Fluoro-3-(trifluoromethyl)benzyl)oxy)-6,7,8,9,9a,10-hexahydro-1H-pyrido-[1′,2′:3,4] imidazo[1,2-c]pyrimidin-1-one]
2 | ≤ 10 | Cc1ccc(COc2cc3n(c(=O)n2)CC2CCCCN32)cc1 (centres unmarked) [Example E9, 3-((4-Methylbenzyl)oxy)-6,7,8,9,9a,10-hexahydro-1H-pyrido[1,2′:3,4]imidazo[1,2-c] pyrimidin-1-one]
3 | ≤ 0.001 | O=c1nc(OCc2cc(F)c(Oc3ccnc(C(F)(F)F)c3)c(F)c2)cc2n1C[C@@H]1CCCN21 [Example E71, (S)-3-((3,5-difluoro-4-((2-(trifluoromethyl)pyridin-4-yl)oxy)benzyl)oxy)-7,8,8a, 9-tetra hydropyrrolo[1′,2′:3,4]imidazo[1,2-c]pyrimidin-1(6H)-one]
4 | ≤ 0.001 | O=c1nc(OCc2cc(F)c(Oc3ccnc(C(F)(F)F)c3)c(F)c2)cc2n1C[C@H]1CCCN21 [Example E67, (R)-3-((3,5-difluoro-4-((2-(trifluoromethyl)pyridin-4-yl)oxy)benzyl)oxy)-7,8,8a, 9-tetra hydropyrrolo[1′,2′:3,4]imidazo[1,2-c]pyrimidin-1(6H)-one]
5 | ≤ 10 | N#Cc1ccc(COc2cc3n(c(=O)n2)CC2CCCCN32)cc1 (centres unmarked) [Example E4, 4-(((1-Oxo-6,7,8,9,9a,10-Hexahydro-1H-pyrido[1′,2′:3,4]imidazo[1,2-c]pyrimidin-3-yl)oxy)methyl)benzonitrile]
6 | ≤ 10 | O=c1nc(OCc2ccc(C(F)(F)F)c(Cl)c2)cc2n1CC1CCCCN21 (centres unmarked) [Example E7, 3-((3-Chloro-4-(trifluoromethyl)benzyl)oxy)-6,7,8,9,9a,10-hexahydro-1H-pyrido[1′,2′:3,4] imidazo[1,2-c]pyrimidin-1-one]
7 | ≤ 0.1 | CN(Cc1ccc(F)cc1F)c1cc2n(c(=O)n1)C[C@@H]1CCCCN21 [Example E61, (S)-3-((2,4-Difluorobenzyl)(methyl)amino)-6,7,8,9,9a,10-hexahydro-1H-pyrido[1′,2′:3,4] imidazo[1,2-c]pyrimidin-1-one]

Each compound was assayed against T2, Lp-PLA2 in human plasma (Homo sapiens, UniProt Q13093) (assay: (3a) Lp-PLA2 human plasma Thio-PAF assay). Settings: (3a) Thio-PAF assay, pooled human plasma; Examples 1-265 and 413-430 were tested here; read-out: pIC50 in the Lp-PLA2 human plasma assay (converted).
T2 construct: from tissue; host or cells: pooled human plasma
T2 sequence (Q13093 22-441): T1 sequence (Q13093 22-441)
Format: biochemical
From the text: (3) Lipoprotein-Associated Phospholipase A2 (Lp-PLA2) Human Plasma Assay
The human plasma assay utilizes a thioester analog of PAF (phosphatidylcholine), where hydrolysis yields to the formation of a phospholipid containing a free thiol group. The amount of thiol is quantitated continuously by reacting with CPM (7-diethylamino-3-(4′-maleimidylphenyl)-4-methylcoumarin), a maleimide which increases in fluoresence after Michael addition of thiols. This assay may detect the activity of Lp-PLA2 in human plasma, as determined by specific inhibition by Lp-PLA2 inhibitors.
The thio-PAF assay was run as a quenched 15 μL assay. Compounds source plate was prepared by making 1:3 (by volume) serial dilution of the compounds into pure DMSO on 384-well microplate. 0.01 μL of compounds on compound source plate were transferred to 384 well Greiner 784076 (black) low-volume plates by ECHO liquid dispenser. 8 μL pooled human plasma, which was previously aliquoted and frozen, was added. Plates were centrifuged for 10 sec at 500 rpm. After 30 minutes preincubation, 2 μL of substrate solution comprising 2.5 mM 2-thio-PAF [from ethanol stock], 32 μM CPM [from a DMSO stock] and 3.2 mM NEM (N-ethylmaleimide) [made fresh daily in DMSO] in assay buffer of 50 mM HEPES, pH 7.4, 150 mM NaCl, 1 mM CHAPS was added to 384 well Greiner 784076 (black) low-volume plates by BRAVO liquid handling station. After 2 mins, reaction was quenched with 5 μL of 5% aqueous trifluoroacetic acid (TFA). Plates were covered to protect from light and incubated for 40 min at room temperature. Plates were read at ex: 380/em: 485 using Envision microplate reader. PIC50 data, curve and QC analysis were conducted by using XLFit module in Excel.

Row | IC50 [µM] | Structure (SMILES)
8 | ≤ 10 | O=c1nc(CCc2cccc(F)c2)cc2n1C[C@@H]1COCCN21 [Example E256, (R)-7-(3-fluorophenethyl)-3,4,11,11a-tetrahydropyrimido[6′,1′:2,3]imidazo[5,1-c][1,4]oxazin-9(1H)-one]
9 | ≤ 10 | O=c1nc(OCc2cc(F)c(F)cc2F)cc2n1C[C@H]1CCCCN21 [Example E225, (R)-3-((2,4,5-trifluorobenzyl)oxy)-6,7,8,9,9a,10-hexahydro-1H-pyrido[1′,2′:3,4]imidazo[1,2-c]pyrimidin-1-one]
10 | ≤ 10 | O=c1nc(OCc2cc(F)c(OC3(CCF)CC3)c(F)c2)cc2n1C[C@H]1CCOCN21 [Example E195, (R)-3-((3,5-difluoro-4-(1-(2-fluoroethyl)cyclopropoxy)benzyl)oxy)-8,9,9a,10-tetrahydropyrimido[6′,1′:2,3]imidazo[1,5-c][1,3]oxazin-1(6H)-one]
11 | ≤ 10 | O=c1nc(NCc2ccc(F)cc2F)cc2n1C[C@H]1CCCN21 [Example E216, (R)-3-((2,4-difluorobenzyl)amino)-7,8,8a,9-tetrahydropyrrolo[1,2′:3,4]imidazo[1,2-c] pyrimidin-1(6H)-one]
12 | ≤ 10 | O=c1nc(OCCc2cccc(F)c2)cc2n1C[C@H]1COCCN21 [Example E248, (S)-7-(3-fluorophenethoxy)-3,4,11,11a-tetrahydropyrimido[6′,1′:2,3]imidazo[5,1-c][1,4] oxazin-9(1H)-one]
13 | ≤ 10 | O=c1nc(OCCc2cccc(F)c2)cc2n1C[C@@H]1COCCN21 [Example E246, (R)-7-(3-fluorophenethoxy)-3,4,11,11a-tetrahydropyrimido[6′,1′:2,3]imidazo[5,1-c][1,4] oxazin-9(1H)-one]
14 | ≤ 10 | O=c1nc(CCc2cccc(F)c2)cc2n1C[C@H]1COCCN21 [Example E257, (S)-7-(3-fluorophenethyl)-3,4,11,11a-tetrahydropyrimido[6′,1′:2,3]imidazo[5,1-c][1,4] oxazin-9(1H)-one]
15 | ≤ 10 | Cn1cc(Oc2c(F)cc(COc3cc4n(c(=O)n3)CC3OCCCN43)cc2F)cn1 (centres unmarked) [Example E200, 7-((3,5-Difluoro-4-((1-methyl-1H-pyrazol-4-yl)oxy)benzyl)oxy)-3,4,11,11a tetrahydropyrimido[6′,1′:2,3]imidazo[5,1-b][1,3]oxazin-9(2H)-one]
16 | ≤ 10 | O=c1nc(OCc2ccc(CN3CCCC(F)(F)C3)c(F)c2)cc2n1C[C@@H]1CCCCN21 [Example E205, (S)-3-((4-((3,3-difluoropiperidin-1-yl)methyl)-3-fluorobenzyl)oxy)-6,7,8,9,9a,10-hexahydro-1H-pyrido[1′,2′:3,4]imidazo[1,2-c]pyrimidin-1-one]

Second part, the compound before the results:

Row | Structure (SMILES) | IC50 [µM]
17 | O=c1nc(OCc2cccc(F)c2)cc2n1C[C@@H]1COCN21 [Example E171, (R)-6-((3-fluorobenzyl)oxy)-10,10a-dihydro-1H-oxazolo[3′,4′:3,4]imidazo[1,2-c]pyrimidin-8(3H)-one] | ≤ 10
18 | O=c1nc(OCc2cc(F)c(F)cc2F)cc2n1C[C@@H]1CCOCN21 [Example E181, (S)-3-((2,4,5-trifluorobenzyl)oxy)-8,9,9a,10-tetrahydropyrimido[6′,1′:2,3]imidazo[1,5-c][1,3]oxazin-1(6H)-one] | ≤ 10
19 | N#Cc1ccc(CCOc2cc3n(c(=O)n2)C[C@H]2COCN32)cc1 [Example E191, (S)-4-(2-((8-oxo-3,8,10,10a-tetrahydro-1H-oxazolo[3′,4′:3,4]imidazo[1,2-c]pyrimidin-6-yl)oxy)ethyl)benzonitrile] | ≤ 10
20 | O=c1nc(OCc2ccc(F)cc2F)cc2n1C[C@H]1COCN21 [Example E168, (S)-6-((2,4-difluorobenzyl)oxy)-10,10a-dihydro-1H-oxazolo[3′,4′:3,4]imidazo[1,2-c] pyrimidin-8(3H)-one] | ≤ 10
21 | O=c1nc(OCc2cc(F)c(OC3(CCF)CC3)c(F)c2)cc2n1C[C@@H]1COCN21 [Example E193, (R)-6-((3,5-difluoro-4-(1-(2-fluoroethyl)cyclopropoxy)benzyl)oxy)-10,10a-dihydro-1H-oxazolo[3′,4′:3,4]imidazo[1,2-c]pyrimidin-8(3H)-one] | ≤ 10
22 | O=c1nc(OCc2cc(F)c(F)cc2F)cc2n1C[C@@H]1COCN21 [Example E175, (R)-6-((2,4,5-trifluorobenzyl)oxy)-10,10a-dihydro-1H-oxazolo[3′,4′:3,4]imidazo[1,2-c] pyrimidin-8(3H)-one] | ≤ 10
23 | O=c1nc(OCc2cc(F)cc(F)c2)cc2n1CC1OCCN21 (centres unmarked) [Example E184, 6-((3,5-Difluorobenzyl)oxy)-10,10a-dihydro-2H-oxazolo[3′,2′:3,4]imidazo[1,2-c]pyrimidin-8 (3H)-one] | ≤ 10
